Assay results taken from PubChem BioAssay AID1919003 (Molecular Pharmacology Branch, DTP, NCI, 2023).

Tested on: 786-0 complex spheroids with HUVEC/MSC, growth % test/control
Assay: Anticancer human tumor 786-0 cell line growth inhibition [AhR];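 further: compound exposure lasted seven days before the read-out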
Details: for IC50: curve of first compound; for viability, T/C: stronger effect = lower value
Procedure, shortened: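 Spheroids combined tumor cells with HUVEC endothelial cells and human MSCs as stroma. AhR antagonists were paired with standard or investigational drugs, each dosed in half-log steps down from near clinical Cmax, or from 10 microM where Cmax was unknown.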

## COc1cc(C2c3cc4c(cc3C(OC3OC5COC(C)OC5C(O)C3O)C3COC(=O)C23)OCO4)cc(OC)c1O (stereo not given) + CC(CO)NC(=O)c1cc(-c2ccc(Cl)cc2)nn(-c2cnn(C)c2)c1=O
Second compound 0.1 µM
  IC50: 597 nM
Second compound 0.316 µM
  IC50: 517 nM
Second compound 1 µM
  IC50: 422 nM
Second compound 3.16 µM
  IC50: 232 nM
Second compound 10 µM
  IC50: 255 nM
Second compound 0.1 µM, first compound 0.0316 µM
  viability, T/C: 89.7%
Second compound 0.1 µM, first compound 0.1 µM
  viability, T/C: 82%
Second compound 0.1 µM, first compound 0.316 µM
  viability, T/C: 74.2%
Second compound 0.1 µM, first compound 1 µM
  viability, T/C: 29.7%
Second compound 0.1 µM, first compound 3.16 µM
  viability, T/C: 18.8%
Second compound 0.1 µM, first compound 10 µM
  viability, T/C: 5.08%
Second compound 0.316 µM, first compound 0.0316 µM
  viability, T/C: 66%
Second compound 0.316 µM, first compound 0.1 µM
  viability, T/C: 72.5%
Second compound 0.316 µM, first compound 0.316 µM
  viability, T/C: 69.1%
Second compound 0.316 µM, first compound 1 µM
  viability, T/C: 24.9%
Second compound 0.316 µM, first compound 3.16 µM
  viability, T/C: 13.1%
Second compound 0.316 µM, first compound 10 µM
  viability, T/C: 6.05%
Second compound 1 µM, first compound 0.0316 µM
  viability, T/C: 79.1%
Second compound 1 µM, first compound 0.1 µM
  viability, T/C: 94.9%
Second compound 1 µM, first compound 0.316 µM
  viability, T/C: 58.7%
Second compound 1 µM, first compound 1 µM
  viability, T/C: 20.2%
Second compound 1 µM, first compound 3.16 µM
  viability, T/C: 16%
Second compound 1 µM, first compound 10 µM
  viability, T/C: 4.53%
Second compound 3.16 µM, first compound 0.0316 µM
  viability, T/C: 83.7%
Second compound 3.16 µM, first compound 0.1 µM
  viability, T/C: 65.6%
Second compound 3.16 µM, first compound 0.316 µM
  viability, T/C: 44.8%
Second compound 3.16 µM, first compound 1 µM
  viability, T/C: 24.4%
Second compound 3.16 µM, first compound 3.16 µM
  viability, T/C: 17.5%
Second compound 3.16 µM, first compound 10 µM
  viability, T/C: 5.67%
Second compound 10 µM, first compound 0.0316 µM
  viability, T/C: 88.3%
Second compound 10 µM, first compound 0.1 µM
  viability, T/C: 78.8%
Second compound 10 µM, first compound 0.316 µM
  viability, T/C: 40.2%
Second compound 10 µM, first compound 1 µM
  viability, T/C: 22.2%
Second compound 10 µM, first compound 3.16 µM
  viability, T/C: 13.9%
Second compound 10 µM, first compound 10 µM
  viability, T/C: 3.72%
